This is an account of results in patent US20210283035A1, “AN ANTIMICROBIAL COMPOSITION” (Conopco, Inc., d/b/a UNILEVER, priority 2016, published 2021).

In the experiment the test system is Malassezia furfur. The experiment is described as follows: ΣFIC assay against Malassezia furfur (in-vitro susceptibility testing, alamar blue). Format: cell-based. Particulars: CBS1878, active alone, M. furfur CBS 1878 in Pityrosporum Broth, 32° C., complete growth inhibition by alamar blue, read-out: Minimum Inhibition Concentration (MIC). Here is the method: A brief description of the method is given below.
Methods: ΣFIC Assay Against Malassezia furfur
They are then incubated at 32° C. for 48 hrs with shaking. Then, 1 ml of the first broth culture is transferred into 9 ml of fresh PB and incubated at 32° C. for 48 hrs with shaking. The final culture should contain 2 to 6×10^6 cells/ml. This is achieved by diluting using PB to 5*10^5 cell/ml.
Binary combinations of ZPTO and the testing compound were prepared in 96-well plate by mixing 20 μl of zinc pyrithione solution with 20 μl of testing compound. The solution in each well were further mixed with 160 μl of PB and 20 μl of M. furfur. The final cell density in the testing plate is around 5*10^4 cell/ml, and the final concentration of actives in each well of the 96-wel plate were shown below.
The plate was incubated at 32° C. for one day. Then 20 μl of alamar blue (0.01%) was added into each well with a further incubation for one day to observe the color change. Red color indicates microbial growth and the non-changing blue color indicates no growth.
The MIC is defined as the absolute lowest concentration of active that provides complete microbial growth inhibition as indicated by the blue color of alamar blue under the tested condition. […]

`O=C(c1ccccc1)c1ccc(O)cc1O` [benzophenone-1]: the MIC was found to be 500 µg/mL.

For `O=C(c1ccc(O)cc1O)c1ccc(O)cc1O` [benzophenone-2], the MIC is 1000 µg/mL.
